Tested on: HL-60
Experiment: Cytotoxicity against human HL60 cells
Format: functional, cell-based

SMILES	IC50
C/C=C(\C)C(=O)O[C@H]1[C@@]2(C)C[C@@]3(OC(C)=O)[C@](C)([C@H]4CC[C@]5(C)C(=C4[C@H](OC(C)=O)[C@@]13OC(C)=O)[C@@H](OC(C)=O)C(=O)O[C@H]5c1ccoc1)[C@H]2CC(=O)OC [15-ACETYLTRICHAGMALIN E]	21 µM
C/C=C(\C)C(=O)O[C@H]1[C@@]2(C)C[C@@]3(O)[C@](C)([C@H]4CC[C@]5(C)C(=C4[C@H](OC(C)=O)[C@@]13O)[C@@H](OC(C)=O)C(=O)O[C@H]5c1ccoc1)[C@H]2CC(=O)OC [TRICHAGMALIN D]	17.1 µM

— ChEMBL document CHEMBL1687871, “Phragmalin- and mexicanolide-type limonoids from the leaves of Trichilia connaroides” (J Nat Prod, 2011)
